Series [1] deals with Reconstructed Human Epidermis (RHE). Put plainly: LDH quantification (membrane integrity / viability) in cold-stress epidermal dryness model. It counts as cell-based. An excerpt:
(§1) An experimental model of epidermal dryness, induced by modified room humidity and temperature conditions, has been used to assess the efficacy of 3 cosmetic products characterized by the following compositions SOLUTION 1 Water + trehalose 1% SOLUTION 2 Water + ectoine 0,5% SOLUTION 3 Water + ectoine 0,5% + trehalose 1%.
(§2) SkinEthic® Reconstructed Human Epidermis (RHE) of 0,5 cm^2 is a fully differentiated epidermis formed after 17 day of air-lift culture of NHK from skin biopsies in a chemically defined medium. The model reproduces epidermal morphology and it has been fully characterized. The good barrier function, batch reproducibility and low variability in terms of permeability for probe molecules have been described in the Literature compared to human ex-vivo models.
Immediately after arrival in the laboratory, the RHE were transferred to a 6-well plate previously filled with maintenance medium (1 mL/well) at room temperature and incubated at 37°C, 5% CO2, saturated humidity. The test has been started the day after the arrival.
The cell membrane forms a functional barrier around the cell, and traffic into and out of the cell is highly regulated by transporters, receptors and secretion pathways. When cells are damaged, they become 'leaky' and this forms the basis for the second type of assay. Membrane integrity is determined by measuring lactate dehydrogenase (LDH) in the extracellular medium. This enzyme is normally present in the cytosol, and cannot be measured extracellularly unless cell damage has occurred. […] The culture supernatant is collected and incubated with the reaction mixture including the kit (20 min, room T°, in the dark). An increase in the amount of dead or plasma membrane-damaged cells results in an increase of the LDH enzyme activity in the culture media. This increase in the amount of enzyme activity in the supernatant directly correlates to the amount of formazan formed during a defined time period therefore, the amount of color formed in the assay is proportional to the number of lysed cells.
The higher optical density has been quantified in the media of stressed RHE and used as 100 % higher citotoxicity value.

The test system of a further series is AQP3. Nature of the series: Real time PCR, AQP3 gene expression in RHE. It counts as cell-based, Human. To be noted: for AQP3 (RQ): cold stressed RHE.
From the text: as §1, §2
(§3) For the three steps, ready to use reagents were used. The RNAqueous method is a rapid, phenol free, filter based RNA isolation system used to extract the total RNA from cellular samples. The High Capacity cDNA Reverse Transcription kit was used to synthetize cDNA from RNA. The instrument Applied Biosystems 7500 Fast Real Time PCR with fluorescent-based PCR chemistry, the TaqMan assay, was used to study gene expression of significant biomarkers. Gene expression is the process by which the inheritable information in a gene, such as the DNA sequence, is made into a functional gene product, such as protein or RNA. Relative quantification determines the change in the expression of a nucleic acid sequence in a test sample relative to the same sequence in a calibrator sample. Beta-actin was used as an endogenous control gene to normalize input amounts.
(§4) Each replicate was assessed in triplicate. At the 2X TaqMan Fast Universal PCR Master Mix was added Taqman gene expression assay and cDNA (25 ng) for a total volume of 25 µL. The Thermal condition steps in the ABI PRISM 7500 Fast are: 95°C 20 sec; 40 cycles (95°C 3 sec +60°C 30 sec).
(§5) Fluorescence data of the RT-PCR generated by the thermocycler ABI PRISM 7500 Fast, are collected by the internal software SDS 2.0.5 and the Raw Data (RQ study results) are printed and exported in Excel.
(§6) Because each cycle in the PCR reaction corresponds to a 2-fold increase in PCR product, a difference of one in threshold cycle number represents a 2-fold difference in the expression of a particular gene compared to the calibrator sample and can be considered as significant. 95% of confidence level is used by the software to calculate the errors.
(§7) The cold stress performed by 30' induction at -20°C corresponds to a block of water flux: the treatment has been done at this moment and followed by 16h and 48h recovery allowing to monitor the dynamic of the genomic response and to study product mechanism of action: the fig.3 described RHE's physiological response of saline solution treatment and glycerol compared to the RHE physiological response of the same treated with SOLUTIONS 1,2,3.
On the technique in general: Real-time PCR tracks product formation cycle by cycle.

The next series relates to HSP1A1. Put plainly: Real time PCR, HSP1A1 (HSP 72) gene expression in RHE. The class given is cell-based, Human. To be noted: for HSP 72 (RQ): cold stressed RHE, calibrator stressed saline =1 (Fig. 7).
From the text: as §1, §2, §3, §4, §5, §6, §7

Turning to `OCC(O)CO` [Glycerin 5%, Glycerin], the “citotoxicity (LDH release), verbal assessment” value in series [1] (16h and 48h, standard conditions (for Glycerin 5% also stressed conditions)) is “not citotoxic”. The “% VIABILITY” value in series [1] (STANDARD conditions (without stress), 30 MIN + 16H) was 96,08%; in series [1] (STANDARD conditions (without stress), 30 MIN + 48H) it was 63,14%; in series [1] (cold stressed RHE (30 MIN at -20°C), product applied, 16H recovery) it was 80,70%; in series [1] (cold stressed RHE (30 MIN at -20°C), product applied, 48H recovery) it was 61,11%. For the same compound, the “AQP3 Gene expression (RQ)” value in the series on AQP3 (applied after 30' stress induction, 48h recovery, calibrator CONTROL RHE CN=1 (Fig. 3)) is listed as “reduced”; in the series with AQP3 (non stressed but treated RHE, standard conditions, 16h, calibrator CN 16h=1 (Fig. 1)), “significantly reduced”; in the series on AQP3 (non stressed but treated RHE, standard conditions, 48h, calibrator CN 48h=1 (Fig. 1)), 1,694. For the same compound, the “AQP3 (RQ)” value in the series with AQP3 (16H recovery, calibrator RHE STRESSED SALINE =1) is reported as 0,437; with AQP3 (48H recovery, calibrator RHE STRESSED SALINE =1 (Fig. 4), 2880 min) it was 0,409; with AQP3 (48H recovery, calibrator RHE STRESSED SALINE =1 (Fig. 4), listed as Glycerol 5%), “reduced”. Also, the “HSP 72 (RQ)” value in the series on HSP1A1 (16H recovery) is “down-regulation”; in the series with HSP1A1 (16H recovery, 960 min), 0,139; in the series with HSP1A1 (48H recovery), 0,437. Besides, the “HSP1A1 Gene expression” value in the series with HSP1A1 (non stressed but treated RHE, standard condition, 16h, calibrator CN 16h=1 (Fig. 5)) is recorded as “significantly reduced”. Also, the “HSP1A1 (HSP 72) Gene expression” value with HSP1A1 (not stressed RHE, 48h treatment, calibrator CN 48h=1 (Fig. 5)) was “over expression”. Further, the “HSP 72 expression” value in the series with HSP1A1 (stressed RHE, 16h recovery, calibrator positive stressed control (Fig. 6)) is listed as “reduced”.

The values are drawn from patent publication EP2695600A1, “Dermal cosmetic compositions having osmoprotecting activity” (Unifarco S.p.A., priority 2012, dated 2014).
